Tests used:
c-Abl [1] = assay: Western blotting of H2O2 induced c-Abl phosphorylation in HUVEC; type: cell-based, human; details: AICAR 2 mM 2 h
Description: (§1) HUVECs (Lonza, Walkersville, Md.) were cultured in Endothelial Growth Medium (EGM, Lonza, Walkersville, Md.). For all experiments, cells were grown at 37° C. in a humidified atmosphere of 5% CO2 and 95% air. Experiments were performed on cells below passage 3 to 6 grown to 80-90% confluence.
(§2) Protein extraction and western blotting were carried out as described previously (Morizane et al. JBC). Densitometric analysis of bands was performed using ImageJ software. Lane-loading differences were normalized by β-actin.
Cells were transfected with siRNAs using Nucleofection kit (Amaxa Biosysteins, Gaithersburg, Md.), following the manufacturer's protocol. The medium was changed at 6 h after transfection. The down-regulation of each protein was evaluated at 3 days after nucleofection.

endothelial cells = details: in the absence of VEGF; cited from earlier work
prdx1/c-Abl complex = assay: Co-immunoprecipitation of prdx1 and c-Abl under VEGF; type: cell-based, human; details: AICAR 2 mM 2 h, VEGF 12.5 ng/mL 10 min
Description: Immunoprecipitation was performed with the Universal Magnetic Co-IP Kit (Active Motif North America, Carlsbad, Calif.) according to the manufacturer's instruction.
(§3) Cells were transfected with siRNAs using a Nucleofection kit (Amaxa Biosystems, Gaithersburg, Md.), following the manufacturer's protocol. The medium was changed 6 h after transfection. The down-regulation of each protein was evaluated 3 days after nucleofection.

HUVEC = assay: Albumin endocytosis assay under H2O2 (Alexa555-BSA, confocal); type: cell-based, human; details: AICAR 2 mM 2 h, then H2O2 2 mM 30 min, FIG. 1D
Description: After serum starvation for overnight, HUVECs were pretreated with AICAR (2 mM) for 2 h, and then stimulated with H2O2 (2 mM) for 30 min. We added BSA conjugated with Alexa 555 (50 μg/ml, Life Technologies, Gaithersburg, Md.) in the medium during the experiment. Cells on coverslips were washed three times with cold TBS and fixed in 100% methanol at −20° C. for 15 min. Cells were then permeabilized in 0.3% Triton X-100, 0.15% BSA in TBS with 0.05% Tween 20 (TBST) for 15 min at room temperature and blocked with 0.5% skim milk in TBST for 60 min at room temperature. Cells were incubated in p-caveolin-1 antibody diluted 1:200 and VE-cadherin antibody diluted 1:400 for overnight at 4° C., and then incubated for 2 h in secondary antibody diluted 1:300. Cells were then rinsed three times in TBST before mounting in Toto3 (Life Technologies, Gaithersburg, Md.). Images were acquired with confocal microscope, Leica TCS SP2 spectral confocal laser scanning microscope (Leica Microsystems, Wetzlar, Germany).

AMPK = assay: Western blotting of AMPK phosphorylation in HUVEC (Example 1); type: cell-based, human; details: each concentration of AICAR for 2 h, FIG. 2A
Description: as §1, §2

c-Abl [2] = assay: Western blotting of VEGF induced c-Abl phosphorylation in HUVECs; type: cell-based, human; details: AICAR 2 mM 2 h
Description: (§4) Human umbilical vein endothelial cells (HUVECs) were cultured in endothelial growth medium (EGM, Lonza, Walkersville, Md.). Normal human dermal fibroblasts (NHDFs) were cultured in fibroblast basal medium (ATCC, Rockville, Md.). Cells were grown at 37° C. in a humidified atmosphere of 95% air, 5% CO2. Experiments were performed on cells below passage 3 to 6 grown to 80%-90% confluence.
Protein extraction and Western blotting were carried out as described previously (Morizane et al. JBC (26)). We conducted a densitometric analysis of bands using ImageJ software. Lane-loading differences were normalized by β-actin.
as §3

[3] = tested on: retinoblastoma xenografts; details: AICAR-treated retinoblastoma xenografts; cited from earlier work
VEGFR2 = assay: Western blotting of VEGF induced VEGFR2 phosphorylation in HUVECs; type: cell-based, human; details: AICAR 2 mM 2 h, VEGF 12.5 ng/mL 0 to 60 min; FIG. 8C,D
Description: as §4, with “confluence. Protein extraction and Western blotting were carried out as described previously (Morizane et al. JBC (26)). We conducted a densitometric analysis of bands using ImageJ software. Lane-loading differences were normalized by β-actin.” for “confluence.”

NC(=O)c1ncn([C@@H]2O[C@H](CO)[C@@H](O)[C@H]2O)c1N [AICAR, 5-Aminoimidazole-4-carboxamide riboside]
inhibitory effect of AICAR on H2O2 induced c-Abl phosphorylation after knockdown of either AMPKα isoform (c-Abl [1]; AMPKα1 or α2 siRNA HUVEC, H2O2 2 mM 30 min, FIG. 3): abolished | H2O2 induced phosphorylation of c-Abl (c-Abl [1]; HUVEC, then H2O2 0.5-2.0 mM 30 min, FIG. 1A,C): significantly suppressed | inhibitory effect of AICAR on H2O2 induced c-Abl phosphorylation in cells lacking prdx1 (c-Abl [1]; prdx1 siRNA HUVEC, H2O2 2 mM 30 min, FIG. 6A,C): abolished | endothelial proliferation (endothelial cells): suppressed endothelial proliferation | VEGF induced dissociation between prdx1 and c-Abl (prdx1/c-Abl complex; FIG. 15D): inhibited | ability of AICAR to inhibit VEGF induced prdx1/c-Abl dissociation after knockdown of AMPKα1 or α2 (prdx1/c-Abl complex; AMPKα1 or α2 siRNA, FIG. 15F,G): decreased | H2O2 induced albumin endocytosis (HUVEC): suppressed | caveolin-1 phosphorylation (immunofluorescence) in albumin endocytosis assay (HUVEC): suppressed | AMPK phosphorylation after AICAR administration (AMPK): phosphorylated AMPK dose-dependently | VEGF induced phosphorylation of c-Abl (c-Abl [2]; VEGF 12.5 ng/mL 0 to 60 min, FIG. 11A,B): significantly suppressed | inhibitory effect of AICAR on VEGF-induced c-Abl phosphorylation after knockdown of either AMPKα isoform (c-Abl [2]; AMPKα1 or α2 siRNA, VEGF 12.5 ng/mL 10 min, FIG. 13): abolished | inhibitory effect of AICAR on VEGF-induced c-Abl phosphorylation in cells lacking prdx1 (c-Abl [2]; prdx1 siRNA, VEGF 12.5 ng/mL 10 min, FIG. 15A,B): abolished | tumor vessel formation [3]: decrease in tumor vessel formation | VEGFR2 phosphorylation upon VEGF stimulation (VEGFR2): no effect

— patent US20190201430A1, “TREATING OCULAR NEOVASCULARIZATION” (Massachusetts Eye and Ear Infirmary, priority 2014, published 2019)
